Assay results from publication PMC9879403, “Oncolytic strategy using new bifunctional HDACs/BRD4 inhibitors against virus-associated lymphomas” (PLOS Pathogens, 2023).
Read-outs that look alike come from different tables or passages of the source.

Columns and labels:
BC-1 = assay: WST-1 cytotoxicity assay, BC-1 (KSHV+ PEL); type: cell-based; conditions: Homo sapiens, BC1, 72 h
Description: (§1) Fig 2 Identification of newly synthesized dual inhibitors with anti-PEL activities. (A) The binding mode of (+)-JQ1 with BRD4^BD1 (PDB: 3MXF). BRD4^BD1 is shown as hot pink cartoon with gray surface. Asn140 in BRD4^BD1 is shown as sticks and colored in following pattern: atom C hot pink, atom N dark blue, and atom O yellow. (+)-JQ1 is shown as sticks and colored in following patten: atom C hot pink, atom N dark blue, atom O yellow, atom S golden, and atom Cl green. The solvent exposed region (SEG) of (+)-JQ1 are indicated with white arrow. (B) The binding modes of SAHA and entinostat with HDAC2 (PDB: 3MAX). HDAC2 is shown as blue cartoon with gray surface. Asp181 and His183 in HDAC2 are shown as sticks and colored in following pattern: atom C blue, atom N dark blue, and atom O yellow. The catalytic zinc ion in the active site of HDAC2 is shown as black sphere. SAHA is shown as sticks and colored in following pattern: atom C green, atom N dark blue, and atom O yellow. Entinostat is shown as sticks and colored in following pattern: atom C hot pink, atom N dark blue, and atom O yellow. The SEG of SAHA or entinostat is indicated with white arrow. Hydrogen bonds (H-bonds) are presented by red dash lines. (C) The HDACs/BRD4 dual inhibitors 002-011 were designed by fusing the key pharmacophores of (+)-JQ1 (pink) and HDAC inhibitors (blue), SAHA or entinostat, via various chemical linkers (green). (D) Anti-PEL activities of the new compounds. Five KSHV positive and two KSHV negative lymphoma cell lines were treated with indicated concentrations of these compounds for 72 h. Then the cytotoxicity was determined using the WST-1 assay. (+)-JQ1, SAHA and entinostat were used for the comparisons as single inhibitors. The CC50 for each compound was calculated using GraphPad Prism 5.0 software. Error bars represent S.D. for 3 independent experiments.
(§2) Fig 4 Identification of anti-PEL activities for compound 009 stereoisomers. (A) The chemical structures of anti-HDACs/BRD4 bifunctional molecules 009P1 and 009P2, as well as anti-HDACs or anti-BRD4 mono-functional molecules 009N1, 009N2, 009N3, and 009N4. (B-C) Four KSHV+ PEL cell lines were treated with indicated concentrations of 009P1, 009P2 or 009N1-N4 for 72 h, then the cytotoxicity was determined using the WST-1 assay. (D-I) BCBL-1 cells were treated with these compounds at the respective 2× CC50 for 24 h, then cell cycle (D-F) and apoptosis (G-I) were measured by flow cytometry analysis. Error bars represent S.D. for 3 independent experiments, ** = p<0.01 (vs vehicle control).
(§3) The cell viability following treatment with compounds was assessed by the WST-1 assay (Roche, Indianapolis, Indiana, USA) according to the manufacturer’s protocol as described previously. The absorbance signal was measured using a microplate reader (Biotek Synergy 2). The 50% cytotoxic concentration (CC50) for each compound was calculated from these dose-response curves using the software GraphPad Prism v5.0. Data were normalized as the fold change compared to the DMSO control.

BCP-1 = assay: WST-1 cytotoxicity assay, BCP-1 (KSHV+ PEL); type: cell-based; conditions: BCP-1, 72 h
Description: as §1, §2, §3

JSC-1 = assay: WST-1 cytotoxicity assay, JSC-1 (KSHV+ PEL); type: cell-based; conditions: 72 h
Description: as §1, §2, §3

HUVEC = assay: WST-1 cytotoxicity on primary cells HUVEC; type: cell-based, human
Procedure: as §3
Supplementary file ppat.1011089.s006.tif: S5 Fig Cytotoxicity of tested compounds on HUVEC. The primary cells HUVEC were treated with indicated concentrations of compounds for 72 h, then cell viability was assessed using the WST-1 assay. The CC50 for each compound was calculated from the dose-response curves using Graphpad Prism 5.0 software. Data was normalized as the fold change compared to the DMSO control. (TIF) Click here for additional data file.

BCBL-1 cells [1] = assay: RNA-Sequencing of compound-treated vs vehicle-treated cells; type: cell-based, human; conditions: for Ratio, ARC / Ratio, ARRDC3 / Ratio, ATF3 / Ratio, CCDC169-SOHLH2 / Ratio, CD28 / Ratio, CD44 / Ratio, CFAP58 / Ratio, CHAC1 / Ratio, CSF1R / Ratio, DDIT3 / Ratio, DDIT4 / Ratio, FOS / Ratio, IFNG / Ratio, IRF7 / Ratio, LGALS9B / Ratio, MCM5 / Ratio, PRKCB / Ratio, RP11-707M3.3 / Ratio, SOCS3 / Ratio, SPINT1: gene expression, treated vs vehicle BCBL-1 cells
Procedure: RNA-Sequencing (RNA-Seq) of triplicate samples was performed by BGI Americas Corporation using their unique DNBSEQ sequencing technology. The completed RNA-Sequencing data was submitted to NCBI Sequence Read Archive (SRA# # PRJNA813422). Raw sequencing reads were analyzed using the RSEM software (version 1.3.0; human GRCh38 genome sequence and annotation) and gene expression was quantified as previously described. The EBSeq software was utilized to call differentially expressed genes that were statistically significant using a false discovery rate (FDR) less than 0.05. Differentially expressed genes between compounds- and vehicle-treated PEL cells were used as input for the GO enrichment analyses.

[2] = Pharmacokinetics in plasma of mice (LC-MS/MS); conditions: male, NOD/SCID, mouse, in vivo
Procedure: The i.p. and p.o. dose were formulated with DMSO/PEG300/Tween80/saline (5/30/10/55). Samples were obtained at 0.25, 0.5, 1, 2, 4, and 8 hours post dosing via tail snipping, transferred into plastic microcentrifuge tubes containing 4 μL of K2-EDTA (0.5 M) as anti-coagulant and placed on wet ice until centrifugation. Harvested blood samples were centrifuged shortly after collection at 4,000 g 4°C for 10 minutes. After centrifugation, the amount of compounds in the plasma was determined using HPLC-coupled tandem mass spectrometry (LC-MS/MS). Values are calculated from arithmetic mean plasma concentrations (n = 3 mice per condition). AUClast and t1/2 were determined using GraphPad Prism v5.0. The bioavailability F (%) = AUClast for p.o. / AUClast for i.p. × 100 [50].

BRD4 = BRD4 signaling by Western blot (c-Myc expression); type: cell-based
BCBL-1 cells [3] = assay: Cell death regulatory proteins by Western blot; type: cell-based; conditions: 50 nM, 48 h
[4] = BCBL-1 cells, 48 h, Western blot
[5] = read-out: KSHV-infected lymphomas CC50, BC-1
[6] = read-out: KSHV-infected lymphomas CC50, BCP-1
[7] = read-out: KSHV-infected lymphomas CC50, JSC-1
[8] = ip, mice, single i.p. 50 mg/kg, plasma, read-out: AUClast
[9] = ip, mice, single i.p. 50 mg/kg, plasma, read-out: Cmax
[10] = ip, mice, single i.p. 50 mg/kg, plasma, read-out: Tmax
[11] = ip, mice, single i.p. 50 mg/kg, plasma, read-out: t1/2 (converted)

Structure (SMILES)	Ratio, ARC (BCBL-1 cells [1])	Ratio, ARRDC3 (BCBL-1 cells [1])	Ratio, ATF3 (BCBL-1 cells [1])	Ratio, CCDC169-SOHLH2 (BCBL-1 cells [1])	Ratio, CD28 (BCBL-1 cells [1])	Ratio, CD44 (BCBL-1 cells [1])	Ratio, CFAP58 (BCBL-1 cells [1])	Ratio, CHAC1 (BCBL-1 cells [1])	Ratio, CSF1R (BCBL-1 cells [1])	Ratio, DDIT3 (BCBL-1 cells [1])	Ratio, DDIT4 (BCBL-1 cells [1])	Ratio, FOS (BCBL-1 cells [1])	Ratio, IFNG (BCBL-1 cells [1])	Ratio, IRF7 (BCBL-1 cells [1])	Ratio, LGALS9B (BCBL-1 cells [1])	Ratio, MCM5 (BCBL-1 cells [1])	Ratio, PRKCB (BCBL-1 cells [1])	Ratio, RP11-707M3.3 (BCBL-1 cells [1])	Ratio, SOCS3 (BCBL-1 cells [1])	Expression of p-RB, cleaved-caspase 3 and cleaved-PARP (BCBL-1 cells [3])	other results
Cc1sc2c(c1C)C(c1ccc(Cl)cc1)=N[C@@H](CC(=O)O[C@H](C)c1ccc(C(=O)Nc3ccccc3N)cc1)c1nnc(C)n1-2 [009P1, (R)-1-(4-((2-aminophenyl)carbamoyl)phenyl)ethyl 2-((S)-4-(4-chlorophenyl)-2,3,9-trimethyl-6H-thieno[3,2-f][1,2,4]triazolo[4,3-a][1,4]diazepin-6-yl)acetate]	18.81	30.72	12.86	0.3358	0.4509	0.1954	0.1358	8.345	24.82	12.33	21.76	46.18	0.1678	23.79	0.03812	0.2002	0.02626	0.3443	41.42	strongly affected	CC50 (BC-1; read-out: CC50, BC-1): 42 nM; CC50 (BCP-1; read-out: CC50, BCP-1): 120 nM; CC50 (JSC-1; read-out: CC50, JSC-1): 300 nM; Cytotoxicity in primary cells HUVEC (HUVEC): much less cytotoxicity; Genes differentially expressed between 009P1- and 009P2-treated PEL cells (BCBL-1 cells [1]; BCBL-1, ≥ 2 fold-change and FDR < 0.05): 473 genes; Ratio, SPINT1 (BCBL-1 cells [1]): 0.1504; bioavailability ([2]; 50 mg/kg): 24.5%; AUC(0-t) ([2]; ip, 50 mg/kg): 159000 ng·h/mL; Cmax ([2]; ip, 50 mg/kg): 74600 ng/mL; Tmax ([2]; ip, 50 mg/kg): 1 h; half-life ([2]; ip, 50 mg/kg): 1.66 h; AUC(0-t) ([2]; po, 50 mg/kg): 39000 ng·h/mL; Cmax ([2]; po, 50 mg/kg): 11500 ng/mL; Tmax ([2]; po, 50 mg/kg): 0.5 h; half-life ([2]; po, 50 mg/kg): 1.12 h; c-Myc expression (BRD4; [4]): decreased
O=C(CCCCCCC(=O)Nc1ccccc1)NO [SAHA, suberoylanilide hydroxamic acid, reference compound]	10.26	7.834	33.64	0.1697	0.3793	0.293	0.411	53.96	3.864	16.62	5.426	21.04	0.312	5.624	0.3605	0.4255	0.3013	0.2461	9.781	almost unchanged	CC50 (BC-1; [5]): 1380 nM; CC50 (BCP-1; [6]): 1420 nM; CC50 (JSC-1; [7]): 680 nM; Cytotoxicity in primary cells HUVEC (HUVEC; 72 h, WST-1): moderate cytotoxicity; AUC(0-t) [2, 8]: 12000 ng·h/mL; Cmax [2, 9]: 16600 ng/mL; Tmax [2, 10]: 0.25 h; half-life [2, 11]: 0.72 h; c-Myc expression (BRD4; [4]): subtle effect
Cc1sc2c(c1C)C(c1ccc(Cl)cc1)=N[C@@H](CC(=O)OC(C)(C)C)c1nnc(C)n1-2 [(+)-JQ1, reference compound]	21.83	27.58	28.74	0.1299	0.05544	0.09101	0.2089	55.65	62.41	20.73	28.37	78.64	0.1251	52.67	0.04587	0.1471	0.06358	0.2212	37.19	almost unchanged	CC50 (BC-1; [5]): 44 nM; CC50 (BCP-1; [6]): 59 nM; CC50 (JSC-1; [7]): 41 nM; Cytotoxicity in primary cells HUVEC (HUVEC; 72 h, WST-1): moderate cytotoxicity; Ratio, SPINT1 (BCBL-1 cells [1]): 0.1876; AUC(0-t) [2, 8]: 78000 ng·h/mL; Cmax [2, 9]: 28700 ng/mL; Tmax [2, 10]: 1 h; half-life [2, 11]: 2.27 h; c-Myc expression (BRD4): drastically downregulated
